This is an account of results in patent publication US11208400B2, “Substituted 6-(1H-pyrazol-1-yl)pyrimidin-4-amine derivatives and uses thereof” (Bayer Aktiengesellschaft, priority 2016, dated 2021).

The assay has as its target T1, human Npt2a (Homo sapiens, UniProt Q06495).
T1 construct: expressed in transfected cells
T1 sequence (Q06495 1-639): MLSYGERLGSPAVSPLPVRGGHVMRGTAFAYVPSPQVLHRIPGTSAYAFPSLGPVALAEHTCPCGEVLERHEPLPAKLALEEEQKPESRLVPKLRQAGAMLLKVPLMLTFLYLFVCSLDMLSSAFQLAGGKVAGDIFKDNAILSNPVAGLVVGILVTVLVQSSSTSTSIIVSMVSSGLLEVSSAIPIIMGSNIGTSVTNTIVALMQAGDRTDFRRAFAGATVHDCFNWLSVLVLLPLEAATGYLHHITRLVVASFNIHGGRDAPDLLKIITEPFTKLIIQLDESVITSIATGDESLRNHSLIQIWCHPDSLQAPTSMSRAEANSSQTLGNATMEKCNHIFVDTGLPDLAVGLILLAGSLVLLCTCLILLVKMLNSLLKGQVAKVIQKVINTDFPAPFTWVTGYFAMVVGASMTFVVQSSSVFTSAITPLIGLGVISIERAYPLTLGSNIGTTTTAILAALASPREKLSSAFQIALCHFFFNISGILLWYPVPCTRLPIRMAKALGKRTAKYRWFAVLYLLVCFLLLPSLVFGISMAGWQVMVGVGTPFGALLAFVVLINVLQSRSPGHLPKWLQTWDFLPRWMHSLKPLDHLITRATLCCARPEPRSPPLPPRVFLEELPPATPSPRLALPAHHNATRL
Description: Npt2a activity cell based assay, membrane potential dye, CHO T-REx hNpt2a cells. The following applies: doxycycline-induced, depolarization by sodium phosphate influx, average or median values if tested more than once. In a few lines: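 Doxycycline-induced (0.5 μg/mL, 24 h) CHO T-REx cells were loaded with membrane potential dye in sodium-free NHE buffer (pH 7.4) and exposed to compound (50 μM–1 nM, 5 min, room temperature).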
In turn, `CCc1c(Nc2cc(-n3nc(C)c(C(=O)N4CC(F)(C(F)(F)F)C4)c3C)ncn2)nn(C)c1-c1ccc(F)cc1` [Example 85, [1-(6-{[4-ethyl-5-(4-fluorophenyl)-1-methyl-1H-pyrazol-3-yl]amino}pyrimidin-4-yl)-3,5-dimethyl-1H-pyrazol-4-yl][3-fluoro-3-(trifluoromethyl)azetidin-1-yl]methanone] displayed an IC50 of 0.13 µM. To `Cc1nn(-c2cc(Nc3c(C)c(-c4ccccc4)nn3C)ncn2)c(C)c1Cl` [Example 86, 6-(4-chloro-3,5-dimethyl-1H-pyrazol-1-yl)-N-(1,4-dimethyl-3-phenyl-1H-pyrazol-5-yl)pyrimidin-4-amine] belongs 0.05 µM; to `CCOC(=O)Cc1c(C)nn(-c2cc(Nc3nn(C)c(-c4ccc(F)cc4)c3CC)ncn2)c1C` [Example 87, ethyl [1-(6-{[4-ethyl-5-(4-fluorophenyl)-1-methyl-1H-pyrazol-3-yl]amino}pyrimidin-4-yl)-3,5-dimethyl-1H-pyrazol-4-yl]acetate], 0.032 µM; to `Cc1nn(-c2cc(Nc3c(Cl)c(-c4ccc(F)cc4)nn3C)ncn2)c(C)c1Cl` [Example 88, 6-(4-chloro-3,5-dimethyl-1H-pyrazol-1-yl)-N-[4-chloro-3-(4-fluorophenyl)-1-methyl-1H-pyrazol-5-yl]pyrimidin-4-amine], 0.0285 µM. To `Cc1nn(-c2cc(Nc3nn(C)c(-c4ccc(F)cc4)c3Cl)ncn2)c(C)c1Cl` [Example 89, 6-(4-chloro-3,5-dimethyl-1H-pyrazol-1-yl)-N-[4-chloro-5-(4-fluorophenyl)-1-methyl-1H-pyrazol-3-yl]pyrimidin-4-amine] belongs 0.0048 µM. In the case of `Cc1cc(C)n(-c2cc(Nc3c(Cl)c(-c4ccc(F)cc4)nn3C)ncn2)n1` [Example 90, N-[4-chloro-3-(4-fluorophenyl)-1-methyl-1H-pyrazol-5-yl]-6-(3,5-dimethyl-1H-pyrazol-1-yl)pyrimidin-4-amine] it was 0.133 µM; in that of `Cc1cc(C)n(-c2cc(Nc3nn(C)c(-c4ccc(F)cc4)c3Cl)ncn2)n1` [Example 91, N-[4-chloro-5-(4-fluorophenyl)-1-methyl-1H-pyrazol-3-yl]-6-(3,5-dimethyl-1H-pyrazol-1-yl)pyrimidin-4-amine], 0.00573 µM.

With `CCc1c(Nc2cc(-n3nc(C)c(CCO)c3C)ncn2)nn(C)c1-c1ccc(F)cc1` [Example 92, 2-[1-(6-{[4-ethyl-5-(4-fluorophenyl)-1-methyl-1H-pyrazol-3-yl]amino}pyrimidin-4-yl)-3,5-dimethyl-1H-pyrazol-4-yl]ethanol], it took 0.82 µM to reach half-maximal inhibition (IC50). In the case of `Cc1cc(C(F)F)n(-c2cc(Nc3c(C)nn(-c4ccc(F)cc4)c3C)ncn2)n1` [Example 93, 6-[5-(difluoromethyl)-3-methyl-1H-pyrazol-1-yl]-N-[1-(4-fluorophenyl)-3,5-dimethyl-1H-pyrazol-4-yl]pyrimidin-4-amine] it was 0.029 µM.

As for `CCc1c(Nc2cc(-n3nc(CO)cc3C)ncn2)nn(C)c1-c1ccc(F)cc1` [Example 94, [1-(6-{[4-ethyl-5-(4-fluorophenyl)-1-methyl-1H-pyrazol-3-yl]amino}pyrimidin-4-yl)-5-methyl-1H-pyrazol-3-yl]methanol], 2.5 µM corresponded to half-maximal inhibition (IC50). To `Cc1cc(C(F)F)n(-c2cc(Nc3nn(C)c(-c4ccc(F)cc4)c3C3CC3)ncn2)n1` [Example 95, N-[4-cyclopropyl-5-(4-fluorophenyl)-1-methyl-1H-pyrazol-3-yl]-6-[5-(difluoromethyl)-3-methyl-1H-pyrazol-1-yl]pyrimidin-4-amine] belongs 0.0635 µM; to `Cc1cc(C(F)F)n(-c2cc(Nc3c(C4CC4)c(-c4ccc(F)cc4)nn3C)ncn2)n1` [Example 96, N-[4-cyclopropyl-3-(4-fluorophenyl)-1-methyl-1H-pyrazol-5-yl]-6-[5-(difluoromethyl)-3-methyl-1H-pyrazol-1-yl]pyrimidin-4-amine], 0.11 µM. To `CCc1c(-c2ccc(F)cc2)nn(C)c1Nc1cc(-n2nc(C)c(Cl)c2C)ncn1` [Example 97, 6-(4-chloro-3,5-dimethyl-1H-pyrazol-1-yl)-N-[4-ethyl-3-(4-fluorophenyl)-1-methyl-1H-pyrazol-5-yl]pyrimidin-4-amine] belongs 0.075 µM; to `Cc1cc(C)n(-c2cc(Nc3nn(C)c(-c4ccc(OC(F)(F)F)cc4)c3C)ncn2)n1` [Example 98, 6-(3,5-dimethyl-1H-pyrazol-1-yl)-N-{1,4-dimethyl-5-[4-(trifluoromethoxy)phenyl]-1H-pyrazol-3-yl}pyrimidin-4-amine], 0.051 µM. In the case of `CCc1c(Nc2cc(-n3nc(C)c(Cl)c3C)ncn2)nn(C)c1-c1ccc(F)cc1` [Example 99, 6-(4-chloro-3,5-dimethyl-1H-pyrazol-1-yl)-N-[4-ethyl-5-(4-fluorophenyl)-1-methyl-1H-pyrazol-3-yl]pyrimidin-4-amine] it was 0.05 µM; in that of `Cc1nn(-c2cc(Nc3c(Cl)c(-c4ccc(F)cc4)nn3C)ncn2)c2ccccc12` [Example 100, N-[4-chloro-3-(4-fluorophenyl)-1-methyl-1H-pyrazol-5-yl]-6-(3-methyl-1H-indazol-1-yl)pyrimidin-4-amine], 0.36 µM; in that of `Cc1cc(C)n(-c2cc(Nc3nn(C)c(-c4ccc(C(F)(F)F)cc4)c3C)ncn2)n1` [Example 101, 6-(3,5-dimethyl-1H-pyrazol-1-yl)-N-{1,4-dimethyl-5-[4-(trifluoromethyl)phenyl]-1H-pyrazol-3-yl}pyrimidin-4-amine], 0.0115 µM.

Regarding `Cc1nn(-c2ccc(F)cc2)c(C)c1Nc1cc(-n2nc(C)c3ccccc32)ncn1` [Example 102, N-[1-(4-fluorophenyl)-3,5-dimethyl-1H-pyrazol-4-yl]-6-(3-methyl-1H-indazol-1-yl)pyrimidin-4-amine], the midpoint of inhibition, the IC50, lay at 0.0073 µM.

Regarding `Cc1nn(-c2ccc(F)cc2)c(C)c1Nc1cc(-n2nc3ccccc3c2C)ncn1` [Example 103, N-[1-(4-fluorophenyl)-3,5-dimethyl-1H-pyrazol-4-yl]-6-(3-methyl-2H-indazol-2-yl)pyrimidin-4-amine], the IC50 is 0.064 µM. In turn, `CCc1c(Nc2cc(-n3nc(C)cc3CO)ncn2)nn(C)c1-c1ccc(F)cc1` [Example 104, [1-(6-{[4-ethyl-5-(4-fluorophenyl)-1-methyl-1H-pyrazol-3-yl]amino}pyrimidin-4-yl)-3-methyl-1H-pyrazol-5-yl]methanol] came in with an IC50 of 0.15 µM. Consider `CCc1c(Nc2cc(-n3nc(C)c(C(=O)N4CCCCC4)c3C)ncn2)nn(C)c1-c1ccc(F)cc1` [Example 105, [1-(6-{[4-ethyl-5-(4-fluorophenyl)-1-methyl-1H-pyrazol-3-yl]amino}pyrimidin-4-yl)-3,5-dimethyl-1H-pyrazol-4-yl](piperidin-1-yl)methanone], for which it took 0.235 µM to reach half-maximal inhibition (IC50). In the case of `CCc1c(Nc2cc(-n3nc(C)c(C#N)c3C)ncn2)n[nH]c1-c1ccc(F)cc1` [Example 108, 1-(6-{[4-ethyl-5-(4-fluorophenyl)-1H-pyrazol-3-yl]amino}pyrimidin-4-yl)-3,5-dimethyl-1H-pyrazole-4-carbonitrile] it was 0.094 µM; in that of `Cc1nn(-c2cc(Nc3nn(C)c(-c4ccc(F)cc4)c3C)ncn2)c(C)c1C(C)(C)O` [Example 109, 2-[1-(6-{[5-(4-fluorophenyl)-1,4-dimethyl-1H-pyrazol-3-yl]amino}pyrimidin-4-yl)-3 5-dimethyl-1H-pyrazol-4-yl]propan-2-ol], 0.0503 µM. To `Cc1nn(-c2cc(Nc3nn(C)c(-c4ccc(F)cc4)c3Cl)ncn2)c2ccccc12` [Example 110, N-[4-chloro-5-(4-fluorophenyl)-1-methyl-1H-pyrazol-3-yl]-6-(3-methyl-1H-indazol-1-yl)pyrimidin-4-amine] belongs 0.022 µM; to `CCc1c(Nc2cc(-n3nc(C)cc3C)ncn2)nn(CCO)c1-c1ccc(F)cc1` [Example 111, 2-[3-{[6-(3,5-dimethyl-1H-pyrazol-1-yl)pyrimidin-4-yl]amino}-4-ethyl-5-(4-fluorophenyl)-1H-pyrazol-1-yl]ethanol], 0.36 µM; to `CCc1c(Nc2cc(-n3nc(C)c(C#N)c3C)ncn2)nn(C)c1-c1ccc(F)cc1` [Example 112, 1-(6-{[4-ethyl-5-(4-fluorophenyl)-1-methyl-1H-pyrazol-3-yl]amino}pyrimidin-4-yl)-3,5-dimethyl-1H-pyrazole-4-carbonitrile], 0.0595 µM. As for `CC(=O)c1c(C)nn(-c2cc(Nc3nn(C)c(-c4ccc(F)cc4)c3C)ncn2)c1C` [Example 113, 1-[1-(6-{[5-(4-fluorophenyl)-1,4-dimethyl-1H-pyrazol-3-yl]amino}pyrimidin-4-yl)-3,5-dimethyl-1H-pyrazol-4-yl]ethanone], the IC50 is 0.032 µM.

Turning to `CCc1c(Nc2cc(-n3nc(C)cc3C)ncn2)nn(S(C)(=O)=O)c1-c1ccc(F)cc1` [Example 114, 6-(3,5-dimethyl-1H-pyrazol-1-yl)-N-[4-ethyl-5-(4-fluorophenyl)-1-(methylsulfonyl)-1H-pyrazol-3-yl]pyrimidin-4-amine], the IC50 was 0.29 µM.
